Measurements: patent publication US8486962B2, “Antifungal agents” (F2G Ltd., priority 2005, dated 2013)
≈ marks a conversion by molar mass, not a printed value.

Tests used:
Aspergillus terreus = experiment: MIC, YAG medium, Aspergillus terreus; format: cell-based; settings: YAG medium; for MIC: Aspergillus terreus, read-out: MIC A Terreus 4
How it was run: (§1)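 OD at 485 nm versus drug-free control defines MIC (mg/L): >80% inhibition for Candida albicans in RPMI/2% glucose/MOPS pH7.0 after 24-48 hrs at 35° C, >70% for Aspergillus strains in YAG medium after 24 hrs at 35° C. Spore inocula 1-2×10^4 cfu/ml; yeast 1-2×10^3 cfu/ml.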

[1] = test system: Aspergillus fumigatus AF293; experiment: MIC, YAG medium, Aspergillus fumigatus AF293; format: cell-based; settings: YAG medium; for MIC: Aspergillus fumigatus, AF293, read-out: MIC A Fum. 293
How it was run: as §1

A Terreus 49 = experiment: MIC, YAG medium, A Terreus 49; format: cell-based, Aspergillus terreus; settings: YAG medium; for MIC: Aspergillus terreus, read-out: MIC A Terreus 49
Protocol: Measurement of Minimum Inhibitory Concentrations (MICs)
Between 1 and 5 mgs of compound were accurately weighed out into a sterile Eppendorf tube. The compound was dissolved in DMSO to give a solution containing 5 mg/ml. Tubes were stored at −20° C. until required.
On the day of testing thawed solutions were vortex mixed to ensure homogeneity. 30 μl of solution was removed and added to 570 μl of sterile water in a separate sterile Eppendorf. The thoroughly mixed solution was used to prepare a series of doubling dilutions in water, in a deep well plate. Eleven replicate plates were prepared using a Minitrak by aspirating 20 μl from each well into eleven clear polystyrene 96 well plates.
Spores of Aspergillus spp (Aspergillus fumigatus, Aspergillus terreus, Aspergillus niger and Aspergillus flavus) were harvested from cultures grown on Sabarauds agar for 5 days, and resuspended in PBS/Tween 80 to approx 1×10^7 cfu/ml Other filamentous fungi (Fusarium solani, Scedosporium spp., Trichophyton spp., Absidia corymbifera), were grown on Sabarauds agar for 2-10 days and spores/hyphae resuspended in PBS/Tween to give approx 1×10^7 cfU/ml. Candida species (Candida albicans, Candida glabrata, Candida krusei, Candida parapsilosis and Candida tropicalis) were grown on Sabarauds agar, cells were harvested from the agar using a sterile loop and resuspended in PBS/Tween 80 to approx 1×10^6 cfu/ml. Each organism suspension was diluted in RPMI medium, containing 2% glucose and 0.135M MOPS buffer (pH7.0) to 2×10^4 cfu/ml for Aspergillus spp and other filamentous fungi and 2×10^3 cfu/ml for yeast. 80 μl of an organism suspension was added to each well of the plate containing drug dilutions.
This produced MIC plates with a drug range 50-0.05 mg/L and organism inocula of 1-2×10^4 cfu/ml for Aspergillus spp and other filamentous fungi and 1-2×10^3 cfu/ml for yeasts. All plates were incubated for 24-48 hrs at 35° C. Growth was assessed by monitoring the optical density at 485 nm for each well. The MIC of a compound is the lowest drug concentration that inhibits growth of an organism by >80% compared with a drug free control. MICs are recorded as mg/L. Other growth media can be used for susceptibility testing, and the activity of the described compounds can also be assessed in a medium comprising, 1% glucose, 1% ammonium chloride and 0.5% yeast extract (YAG medium). To perform MIC tests in this medium, dilutions of compounds are prepared in microtitre plates as described above. Fungal strains to be tested are grown and harvested in an identical manner to that described above, each organism suspension is then diluted in YAG medium to 2×10^4 cfu/ml for Aspergillus spp and other filamentous fungi and 2×10^3 cfu/ml for yeast. 80 μl of an organism suspension was added to each well of the plate containing drug dilutions. This produced MIC plates with a drug range 50-0.05 mg/L and organism inocula of 1-2×10^4 cfu/ml for Aspergillus spp and other filamentous fungi and 1-2×10^3 cfu/ml for yeasts. All plates were incubated for 24 hrs at 35° C. Growth was assessed by monitoring the optical density at 485 nm for each well. The MIC of a compound is the lowest drug concentration that inhibits growth of an organism by >70% compared with a drug free control. MICs are recorded as mg/L. In cases where the MIC of an organism is […]0.05 mg/L the MIC is repeated using a concentration range of 0.5-0.0005 mg/L. MIC tests in YAG medium have more clear-cut endpoints and have slightly lower MICS than those performed in RPMI medium.
The following organisms were tested: Aspergillus fumigatus AF293 and Aspergillus fumigatus AF210, Aspergillus niger, Aspergillus terreus, Aspergillus favus, Candida albicans, Candida krusei, Candida tropicalis, Candida glabrata, Candida parapsilosis, Trichophyton rubrum, Trichophyton mentagrophytes, Scedosporium prolificans, Scedosporium apiospermum, Absidia corymbifera, Fusarium solani.

Aspergillus niger = experiment: MIC, YAG medium, Aspergillus niger; format: cell-based; settings: YAG medium; for MIC: Aspergillus niger, read-out: MIC A Niger 1
How it was run: as §1

[2] = test system: Aspergillus fumigatus AF210; experiment: MIC, YAG medium, Aspergillus fumigatus AF210; format: cell-based; settings: YAG medium; for MIC: Aspergillus fumigatus, AF210, read-out: MIC A Fum. 210
How it was run: as §1

Aspergillus flavus = experiment: MIC, YAG medium, Aspergillus flavus; format: cell-based; settings: YAG medium; for MIC: Aspergillus flavus, read-out: MIC A Flavus 01
How it was run: as §1

Compound	MIC (Aspergillus terreus) [µg/mL]	MIC [1] [µg/mL]	MIC (A Terreus 49) [µg/mL]	MIC (Aspergillus niger) [µg/mL]	MIC [2] [µg/mL]	MIC (Aspergillus flavus) [µg/mL]	MIC A Terreus 4 (Aspergillus terreus) [µg/mL]	MIC A Fum. 293 [1] [µg/mL]	MIC A Terreus 49 (A Terreus 49) [µg/mL]	MIC A Niger 1 (Aspergillus niger) [µg/mL]	MIC A Fum. 210 [2] [µg/mL]	MIC A Flavus 01 (Aspergillus flavus) [µg/mL]
N#Cc1cccc(-c2cc3ccccn3c2C(=O)C(=O)Nc2ccc(F)cc2F)c1 [Example 245, 2-[2-(3-Cyano-phenyl)-indolizin-3-yl]-N-(2,4-difluoro-phenyl)-2-oxo-acetamide]	0.4 (≈ 0.997 µM)	6.25 (≈ 15.6 µM)	0.8 (≈ 1.99 µM)	0.4 (≈ 0.997 µM)	6.25 (≈ 15.6 µM)	0.8 (≈ 1.99 µM)						
Cc1ccc(NC(=O)C(=O)c2c(-c3cccs3)cc3ccccn23)cc1 [Example 165, 2-Oxo-2-(2-thiophen-2-yl-indolizin-3-yl)-N-p-tolyl-acetamide]	0.06 (≈ 0.166 µM)	0.8 (≈ 2.22 µM)	0.062 (≈ 0.172 µM)	0.25 (≈ 0.694 µM)	1.6 (≈ 4.44 µM)	0.062 (≈ 0.172 µM)						
O=C(Nc1ccccc1F)C(=O)c1c(-c2ccccc2)cc2ccccn12 [Example 201, N-(2-Fluoro-phenyl)-2-oxo-2-(2-phenyl-indolizin-3-yl)-acetamide]	0.015 (≈ 0.0419 µM)	0.5 (≈ 1.4 µM)	0.015 (≈ 0.0419 µM)	0.015 (≈ 0.0419 µM)	0.25 (≈ 0.698 µM)	0.12 (≈ 0.335 µM)						
COc1ccc(NC(=O)C(=O)c2c(-c3ccccc3)cc3ccccn23)cc1 [Example 139, N-(4-Methoxy-phenyl)-2-oxo-2-(2-phenyl-indolizin-3-yl)-acetamide]	0.008 (≈ 0.0216 µM)	0.12 (≈ 0.324 µM)	0.002 (≈ 0.0054 µM)	0.031 (≈ 0.0837 µM)	0.12 (≈ 0.324 µM)	0.008 (≈ 0.0216 µM)						
CN(C)c1ccc(NC(=O)C(=O)c2c(-c3ccccc3)cc3ccccn23)cc1 [Example 203, N-(4-Dimethylamino-phenyl)-2-oxo-2-(2-phenyl-indolizin-3-yl)-acetamide]	0.015 (≈ 0.0391 µM)	0.06 (≈ 0.156 µM)	0.008 (≈ 0.0209 µM)	0.031 (≈ 0.0808 µM)	0.062 (≈ 0.162 µM)	0.008 (≈ 0.0209 µM)						
C=CCOc1cc(F)ccc1NC(=O)C(=O)c1c(-c2ccccc2)cc2ccccn12 [Example 247, N-(2-Allyloxy-4-fluoro-phenyl)-2-oxo-2-(2-phenyl-indolizin-3-yl)-acetamide]	0.4 (≈ 0.965 µM)	3.1 (≈ 7.48 µM)	0.2 (≈ 0.483 µM)	3.1 (≈ 7.48 µM)	3.1 (≈ 7.48 µM)	1.6 (≈ 3.86 µM)						
2-Oxo-2-(2-pyridin-3-yl-indolizin-3-yl)-N-(3-trifluoromethyl-phenyl)-acetamide [Example 223]							0.12	0.5	0.031	0.5	0.25	0.062
CS(=O)(=O)c1ccc(NC(=O)C(=O)c2c(-c3ccccc3)cc3ccccn23)cc1 [Example 257, N-(4-Methanesulfonyl-phenyl)-2-oxo-2-(2-phenyl-indolizin-3-yl)-acetamide]	0.4 (≈ 0.956 µM)	6.25 (≈ 14.9 µM)	0.4 (≈ 0.956 µM)	0.8 (≈ 1.91 µM)	3.1 (≈ 7.41 µM)	0.4 (≈ 0.956 µM)						
CN1CCc2cc(NC(=O)C(=O)c3c(-c4ccccc4)cc4ccccn34)ccc21 [Example 261, N-(1-Methyl-2,3-dihydro-1H-indol-5-yl)-2-oxo-2-(2-phenyl-indolizin-3-yl)-acetamide]	0.004 (≈ 0.0101 µM)	0.03 (≈ 0.0759 µM)	0.001 (≈ 0.00253 µM)	0.06 (≈ 0.152 µM)	0.03 (≈ 0.0759 µM)	0.004 (≈ 0.0101 µM)						
COc1ccc2cc(-c3ccccc3)c(C(=O)C(=O)Nc3ccc(C)cc3)n2c1 [Example 196, 2-(6-Methoxy-2-phenyl-indolizin-3-yl)-2-oxo-N-p-tolyl-acetamide]	0.12 (≈ 0.312 µM)	0.8 (≈ 2.08 µM)	0.062 (≈ 0.161 µM)	0.5 (≈ 1.3 µM)	0.8 (≈ 2.08 µM)	0.12 (≈ 0.312 µM)						
O=C(Nc1ccc(-c2ncco2)cc1)C(=O)c1c(-c2ccccc2)cc2ccccn12 [Example 268, N-(4-Oxazol-2-yl-phenyl)-2-oxo-2-(2-phenyl-indolizin-3-yl)-acetamide]	0.015 (≈ 0.0368 µM)	0.1 (≈ 0.245 µM)	0.015 (≈ 0.0368 µM)	0.015 (≈ 0.0368 µM)	0.06 (≈ 0.147 µM)	0.03 (≈ 0.0736 µM)						
O=C(Nc1ccc(F)cc1)C(=O)c1c(-c2ccccc2)cc2ccccn12 [Example 200, N-(4-Fluoro-phenyl)-2-oxo-2-(2-phenyl-indolizin-3-yl)-acetamide]	0.015 (≈ 0.0419 µM)	0.25 (≈ 0.698 µM)	0.015 (≈ 0.0419 µM)	0.031 (≈ 0.0865 µM)	0.25 (≈ 0.698 µM)	0.062 (≈ 0.173 µM)						
O=C(Nc1cc(Cl)cc(Cl)c1)C(=O)c1c(-c2ccccc2)cc2ccccn12 [Example 220, N-(3,5-Dichloro-phenyl)-2-oxo-2-(2-phenyl-indolizin-3-yl)-acetamide]	0.031 (≈ 0.0757 µM)	0.12 (≈ 0.293 µM)	0.008 (≈ 0.0195 µM)	0.062 (≈ 0.151 µM)	0.12 (≈ 0.293 µM)	0.015 (≈ 0.0367 µM)						
O=C(Nc1ccc(N2CCCC2)cc1)C(=O)c1c(-c2ccccc2)cc2ccccn12 [Example 260, 2-Oxo-2-(2-phenyl-indolizin-3-yl)-N-(4-pyrrolidin-1-yl-phenyl)-acetamide]	0.008 (≈ 0.0195 µM)	0.015 (≈ 0.0366 µM)	0.008 (≈ 0.0195 µM)	0.015 (≈ 0.0366 µM)	0.03 (≈ 0.0733 µM)	0.008 (≈ 0.0195 µM)						
CN(C)c1ccc(NC(=O)C(=O)c2c(-c3ccccc3)cc3ccccn23)cn1 [Example 229, N-(6-Dimethylamino-pyridin-3-yl)-2-oxo-2-(2-phenyl-indolizin-3-yl)-acetamide]	0.12 (≈ 0.312 µM)	0.5 (≈ 1.3 µM)	0.062 (≈ 0.161 µM)	0.12 (≈ 0.312 µM)	0.5 (≈ 1.3 µM)	0.031 (≈ 0.0806 µM)						
O=C(Nc1cccc(-c2ncco2)c1)C(=O)c1c(-c2ccccc2)cc2ccccn12 [Example 288, N-(3-Oxazol-2-yl-phenyl)-2-oxo-2-(2-phenyl-indolizin-3-yl)-acetamide]	0.008 (≈ 0.0196 µM)	0.1 (≈ 0.245 µM)	0.004 (≈ 0.00982 µM)	0.1 (≈ 0.245 µM)	0.2 (≈ 0.491 µM)	0.015 (≈ 0.0368 µM)						
Cc1ccccc1-c1cc2ccccn2c1C(=O)C(=O)Nc1ccc(OCC(F)(F)C(F)F)nc1 [Example 286, 2-Oxo-N-[6-(2,2,3,3-tetrafluoro-propoxy)-pyridin-3-yl]-2-(2-o-tolyl-indolizin-3-yl)-acetamide]	0.1 (≈ 0.206 µM)	0.1 (≈ 0.206 µM)	0.015 (≈ 0.0309 µM)	0.015 (≈ 0.0309 µM)	0.1 (≈ 0.206 µM)	0.015 (≈ 0.0309 µM)						
O=C(Nc1ccc(-c2cnco2)cc1)C(=O)c1c(-c2ccccc2)cc2ccccn12 [Example 291, N-(4-Oxazol-5-yl-phenyl)-2-oxo-2-(2-phenyl-indolizin-3-yl)-acetamide]	0.015 (≈ 0.0368 µM)	0.8 (≈ 1.96 µM)	0.015 (≈ 0.0368 µM)	0.05 (≈ 0.123 µM)	3.1 (≈ 7.61 µM)	0.03 (≈ 0.0736 µM)						
COc1ccc(NC(=O)C(=NOCCCN(C)C)c2c(-c3ccccc3)cc3ccccn23)cc1 (mixture of isomers) [Example 296, 2-[(E/Z)-3-Dimethylamino-propoxyimino]-N-(4-methoxy-phenyl)-2-(2-phenyl-indolizin-3-yl)-acetamide]							6.25	>50	6.25	25	>50	12.5
